# From patent US9884122B2, “Small molecule drug conjugates” (Philochem AG, priority 2014, dated 2018)
# Where two headings read alike, the source gives them in different places.
# What was measured:
# [1] = target: T1, CAIX (Homo sapiens, UniProt Q16790); test: Affinity determination of CAIX ligands by fluorescence polarization; assay type: binding; settings: PBS pH 7.4, 22° C., 1 h; read-out: Kd by fluorescence polarization in solution
# T1 construct: His6; made in house
# Method: Fluorescein labelled ligands (5 nM diluted with PBS from DMSO stocks, final DMSO content adjusted to 0.001%) were incubated at 22° C. for 1 h in a black 384-well plate (Greiner, non-binding) in PBS (pH 7.4) with increasing concentrations of CAIX to a final volume of 60 μl. The fluorescence anisotropy was measured on a Spectra Max Paradigm multimode plate reader (Molecular Devices). Experiments were performed in triplicate and the mean anisotropy values fitted to the following equation using KaleidaGraph 4.1.3 (Synergy Software),
# [formula] where A is the anisotropy, [P]0 the total protein concentration, [L]0 the total concentration of the fluorescently labelled ligand and KD the dissociation constant.
# [2] = tested on: CAIX expressing SKRC52 cells; test: Ligand binding analysis by flow cytometry, SKRC52; assay type: cell-based, human; settings: 30 nM dye conjugate, 1 h at 0° C., washed
# Method: Cells were detached from culture plates using a 50 mM EDTA solution in phosphate buffered saline (PBS) pH 7.4, counted and suspended to a final concentration of 1.5×10^6 cells mL^−1 in a 1% v/v solution of FCS in PBS pH 7.4. Aliquots of 3×10^5 cells (200 μL) were spun down and resuspended in solutions of IRDye750 (Licor) labeled ligands (30 nM) in a 1% v/v solution of FCS in PBS pH 7.4 (200 μL) and incubated on ice for 1 h. Cells were washed once with 200 μL 1% v/v solution of FCS in PBS pH 7.4 (200 μL), spun down, resuspended in 1% v/v solution of FCS in PBS pH 7.4 (300 μL) and analyzed on a FACS Canto flow cytometer (BD Bioscience). FlowJo Version 8.7 (Treestar) was used for data analysis and visualization. Results were as follows: • (1) Flow cytometry analysis of binding of ligand-IRDye750 conjugates 1c-6c (FIG. 1) to CAIX expressing SKRC52 cells.
# Flow cytometry was performed as described above with monovalent and bivalent near infrared dye conjugates B3 and B4 and negative control conjugates lacking the ligand on CAIX-positive SKRC52 cells and CAIX-negative HEK cells^5.
# [3] = tested on: CAIX positive SKRC52 cells; test: Ligand internalization analysis by flow cytometry, SKRC52; assay type: cell-based, human
# Method: SKRC52 or A549 cells were seeded in 6-well plates in their appropriate culture medium (2 mL) at a density of 1.5×10^5 cells per well and allowed to grow for 24 h under culture conditions. The medium was replaced with medium containing IRDye750 (Licor) labeled probes 1c or 6c (2 mL, 30 nM) and plates incubated for 1, 2 or 4 h under standard culture conditions. After washing with PBS pH 7.4 (2×2 mL), Trypsin-EDTA 0.05% (500 μL, Invitrogen) was added and plates incubated under standard culture conditions for 15 min Medium (500 μL) was added, cells pelleted and resuspended in PBS pH 7.4 containing 1% v/v FCS (150 μL). After incubating for 15 min on ice, cells were labeled for 30 min on ice with rabbit anti human CAIX IgG (1:100, Santa Cruz) in PBS pH 7.4 containing 1% FCS (150 μL), washed with PBS pH 7.4 containing 1% FCS (2×150 μL) and labeled for 30 min on ice with goat anti rabbit IgG Alexa488 conjugate (1:100, Invitrogen) in PBS pH 7.4 containing 1% FCS (150 μL). After washing with PBS pH 7.4 containing 1% FCS (2×150 μL), cells were pelleted and resuspended in PBS pH 7.4 containing 1% v/v FCS and propidium iodide (300 μL, 1 μg mL^−1, Invitrogen) and analyzed on a FACS Canto flow cytometer (BD Bioscience). FlowJo Version 8.7 (Treestar) was used for data analysis and visualization. To inhibit uptake mechanisms, cells were pre-incubated with medium containing 0.2% NaN3 for 1 h and the NaN3 concentration maintained throughout the entire experiment. Alternatively, all steps were performed at 0° C. or an excess of AAZ (100 μM) was added to the culture medium.
# [4] = tested on: subcutaneous SKRC52 tumors
# Method: SKRC52 cells were grown to 80% confluence and detached with Trypsin-EDTA 0.05% (Invitrogen). Cells were washed with PBS pH 7.4 once, counted and resuspended in PBS to a final concentration of 6.7×10^7 cells mL^−1. Athymic balb/c nu/nu mice, 8-10 weeks of age (Charles River) were anesthetized with isofluorane and aliquots of 1×10^7 cells (150 μL of suspension) injected subcutaneously into their lower back.
# Food and water was given ad libitum during that period.
# Mice were subsequently sacrificed by cervical dislocation.
# [5] = tested on: subcutaneous SKRC52 tumors; settings: mouse, in vivo
# Method: (§1) After 1 h, 2 h or 4 h animals were sacrificed, organs extracted as above, cut into small pieces, weighed and suspended in 1:1 w/v organ homogenization buffer containing EDTA (40 mM), proteinase K (6 mg/ml), Triton X-100 (1.6 μl/ml) and trace amounts of DNase 1 in PBS pH 7.4 (100 μL per 100 mg of tissue). The suspension was homogenized on a TissueLyser organ homogenizer (Quiagen, 25 Hz, 10 min), incubated for 2 h at room temperature and 100 μL of the homogenate transferred to a black 96-well plate. […] Fluorescent images of plates were recorded on an IVIS Spectrum imaging system (Xenogen, parameters as above) and analyzed using Living Image software version 4.3.1 (Caliper Life Science) using the built-in region of interest (ROI) tools. Dye concentrations in organ samples in % of injected dose per gram of tissue (% ID g^−1) were inferred from fluorescence intensities originating from the corresponding well by comparison with the standard dilution series.
# [6] = in vivo; settings: balb/c nu/nu, mouse, iv
# Method: as §1
SMILES,Kd [1] [pM],binding to SKRC52 cells (fluorescence shift) [2],"internalization with extended incubation time ([3]; 30 nM at 37° C., 2 h and 4 h versus 1 h)","internalization under conditions inhibiting uptake ([3]; 30 nM, 0.2% w/v NaN3, same with excess AAZ or at 0° C.)","internalization: fluorescence after trypsin detachment ([3]; 30 nM, 1 h at 37° C.)","tumor visibility by near infrared imaging ([4]; 1 nmol intravenous, 1 h)","tumor targeting by near infrared imaging ([4]; 3 nmol intravenous, 1-12 h)",tumor to heart ratio [5],tumor-to-blood ratio [5],"tumor-to-organ ratio, kidneys [5]","tumor-to-organ ratio, liver [5]",tumor-to-blood ratio ([5]; iv),half-life [6] [h]
"CC(CCC(=O)N[C@@H](CC(=O)N[C@@H](CC(=O)N[C@@H](CCCCn1cc(CCCC(=O)Nc2nnc(S(N)(=O)=O)s2)nn1)C(=O)NCCOCCOCCN)C(=O)O)C(=O)O)(c1ccc(O)cc1)c1ccc(O)cc1 [Compound C5a, N-[4,4-bis(4-hydroxyphenyl)pentanoyl]-β-aspartyl-β-aspartyl-N-{2-[2-(2-aminoethoxy)ethoxy]ethyl}-6-(4-{4-oxo-4-[(5-sulfamoyl-1,3,4-thiadiazol-2-yl)amino]butyl}-1H-1,2,3-triazol-1-yl)-L-norleucinamide]",200 ± 100,,,,,,,,,,,,
"CC1(C)C(/C=C/C2=C(c3ccc(CCCCC(=O)NCCOCCOCCNC(=O)CCC(=O)Nc4nnc(S(N)(=O)=O)s4)cc3)C(=C/C=C3/N(CCCCS(=O)(=O)O)c4ccc(S(=O)(=O)[O-])cc4C3(C)C)/CCC2)=[N+](CCCCS(=O)(=O)O)c2ccc(S(=O)(=O)O)cc21 [Compound 1c, N1-(2-(2-(2-aminoethoxy)ethoxy)ethyl)-N4-(5-sulfamoyl-1,3,4-thiadiazol-2-yl)succinamide IRDye750 conjugate]",,binds strongly enough to result in a strong fluorescence shift after washing of cells,did not see a markedly increased signal,fluorescent signal was shifted to baseline,higher fluorescence intensity than cells treated with non-binding conjugate 6c or untreated cells,the tumor could clearly be seen against background,gave good tumor to background contrast,27.6:1,79.2:1,1.4:1,0.2:1,13.8:1,~1
